Experiments:
[1] = tested on: zebrafish embryos; assay: Phenotypes of live zebrafish embryos at 48 hpf after morpholino injection; type: in vivo
Text: (§1) To disrupt the MEC-17 gene in Tetrahymena, we used homologous DNA recombination with a fragment carrying the neo4 marker that replaced the coding region. MEC-17 was overexpressed in Tetrahymena using the MTT1 cadmium-dependent promoter. In C. elegans, MEC-12-K40, MEC-12-Q40, and MEC-12-R40 transgenes were introduced into a single site on chromosome II in the EG4322 strain. Animals homozygous for a MEC-12 transgene and homozygous for the mec-12(e1607) allele were obtained by standard crosses. All touch sensation assays in C. elegans were done using blind scoring. To deplete human MEC-17 (C6Orf134) mRNA in Hela cells, we introduced MEC-17-specific siRNAs (ON-TARGETplus pool, Dharmacon) using Oligofectamine (Invitrogen). To knockdown mec17 expression in zebrafish, MOs designed to target the MEC-17 mRNA (Open Biosystems) were injected into early embryos. ATG-MEC17 MO targets the translation initiation site of mec17 mRNA. SP-MEC17 MO targets the exon3/intron3-4 splice junction, and is expected to result in an aberrant splicing isoform of exon2 to exon 4, producing a frameshift mutation and associated protein truncation. As a negative control, we injected MO with a random sequence (oligo-25N, Gene Tools) or a 5 bp mismatch to the ATG-MEC17 MO. Live embryos were scored for phenotypes at 48 hpf. To produce a recombinant MEC-17 protein, the cDNA sequence of the murine MEC-17 (BF135007, Open Biosystems) was subcloned into pGEX-3× plasmid (GE Healthcare), expressed in BL21 E. coli cells as a GST fusion and purified using GST-Bind kit (Novagen). The in vitro acetylation assays were performed in 50 mM Tris-HCl pH 8.0, 10 mM glycerol, 0.1 mM EDTA, with purified Tetrahymena MEC-17-KO axonemes or tubulin (purified using DEAE chromatography), recombinant GST-MmMEC-17 enzyme and 10 μM acetyl-CoA. The reaction was detected by western blotting using anti-acetyl-K antibodies.
ATG-MEC17 targets the translation initiation site of MEC-17 mRNA. SP-MEC17 MO targets the exon3/intron3-4 splice junction, and is expected to result in an aberrantly spliced isoform in which exon2 is joined to exon 4. The predicted transcript contains a frameshift mutation and encodes a nonsense protein. As a negative control we injected MO with a random sequence (oligo-25N, Gene Tools) or a 5 bp mismatch to the ATG-MEC17 MO (5′-CATTgAcGTCcTAAGGcAAATgCAT-3′; SEQ ID NO:9). Live embryos were scored for phenotypes at 48 hpf, or fixed processed for immunofluorescence as described (Wloga et al., 2009 Dev Cell 16:867-876). The antibodies were used in the following concentrations: 6-11 B-1 mAb (1:1000), Znp-1 anti-synaptotagmin 1 mAb (1:100). After incubation with secondary antibodies (Zymed) overnight at 4° C. (1:500) embryos were mounted in 100 mg/ml of DABCO (Sigma-Aldrich) in PBS and viewed in a Leica TCS SP confocal microscope. Live zebrafish morphants shown in videos S1-S3 were recorded using on the Zeiss Stemi SV11 Apo microscope and a SPOT FLEX camera (Diagnostic Instruments Inc.) at 12 frames per second.

[2] = tested on: mec17 mRNA; assay: RT-PCR of mec17 mRNA in morpholino-injected embryos; type: in vivo, zebrafish; details: RT-PCR exon 1 to exon 5
Description: Total cDNA was made using randomly-primed mRNA isolated from either control (WT) or embryos injected with 5 bp mismatch MO (MIS), ATG-MO (ATG), or splice-site MO (SP), and amplified using either primers corresponding to the coding sequence of the β-actin gene (top panel) or primers that correspond to the sequence of mec17 between exon 1 and exon 5 (bottom panel). As controls, amplifications were performed on samples that lacked reverse transcriptase (−RT). Note that the β-actin gene primers gave a robust product of the expected size (100 bp) for all +RT samples (top).
For RT-PCR, mRNA was isolated from 70 embryos 24 hpf using TRIzol reagent (Invitrogen, Carslbad, Calif.), and total cDNA was synthesized using iScript cDNA synthesis kit (Bio-Rad Laboratories, Hercules, Calif.). The sequences of primers used to amplify the mec17 cDNA were: MEC17EX1F 5′-[…]-3′ (SEQ ID NO:10) and MEC17EX5R2 5′-[…]-3′ (SEQ ID NO:11). The forward primer binds to exon 1 and the reverse primer binds to exon 5 (the splice blocking morpholino binds to the junction between exon 3 and the intron 3-4). For the control amplification of β-actin cDNA, we used the following primers: 5′-[…]-3′ (SEQ ID NO:12) and 5′-[…]-3′ (SEQ ID NO:13).

[3] = tested on: MEC-17-KO Tetrahymena cells; assay: Response of Tetrahymena strains to microtubule drugs (growth, axonemes); type: cell-based; details: MEC-17-KO vs wild type
Description: Cells were suspended at 10^5 cell/ml in SPP medium and incubated with the drug for 22 hr at 30° C. and the cell density was determined.

[4] = tested on: GST-MmMEC-17; assay: In vitro tubulin acetyltransferase assay: effect of added agents on MEC-17 activity; type: biochemical, murine; details: purified MEC17-KO tubulin or axonemes, acetyl-CoA
Text: as §1, with “To produce a recombinant MEC-17 protein, the cDNA sequence of the murine MEC-17 (BF135007, Open Biosystems) was subcloned into pGEX-3× plasmid (GE Healthcare), expressed in BL21 E. coli cells as a GST fusion and purified using GST-Bind kit (Novagen). The in vitro acetylation assays were performed in 50 mM Tris-HCl pH 8.0, 10 mM glycerol, 0.1 mM EDTA, with purified Tetrahymena MEC-17-KO axonemes or tubulin (purified using DEAE chromatography), recombinant GST-MmMEC-17 enzyme and 10 μM acetyl-CoA.” left out, “antibodies. […]” for “antibodies.”

[5] = biological target: T1, HDAC6 (Homo sapiens, UniProt Q9UBN7); details: cited from earlier work
T1 sequence (Q9UBN7 1-1215): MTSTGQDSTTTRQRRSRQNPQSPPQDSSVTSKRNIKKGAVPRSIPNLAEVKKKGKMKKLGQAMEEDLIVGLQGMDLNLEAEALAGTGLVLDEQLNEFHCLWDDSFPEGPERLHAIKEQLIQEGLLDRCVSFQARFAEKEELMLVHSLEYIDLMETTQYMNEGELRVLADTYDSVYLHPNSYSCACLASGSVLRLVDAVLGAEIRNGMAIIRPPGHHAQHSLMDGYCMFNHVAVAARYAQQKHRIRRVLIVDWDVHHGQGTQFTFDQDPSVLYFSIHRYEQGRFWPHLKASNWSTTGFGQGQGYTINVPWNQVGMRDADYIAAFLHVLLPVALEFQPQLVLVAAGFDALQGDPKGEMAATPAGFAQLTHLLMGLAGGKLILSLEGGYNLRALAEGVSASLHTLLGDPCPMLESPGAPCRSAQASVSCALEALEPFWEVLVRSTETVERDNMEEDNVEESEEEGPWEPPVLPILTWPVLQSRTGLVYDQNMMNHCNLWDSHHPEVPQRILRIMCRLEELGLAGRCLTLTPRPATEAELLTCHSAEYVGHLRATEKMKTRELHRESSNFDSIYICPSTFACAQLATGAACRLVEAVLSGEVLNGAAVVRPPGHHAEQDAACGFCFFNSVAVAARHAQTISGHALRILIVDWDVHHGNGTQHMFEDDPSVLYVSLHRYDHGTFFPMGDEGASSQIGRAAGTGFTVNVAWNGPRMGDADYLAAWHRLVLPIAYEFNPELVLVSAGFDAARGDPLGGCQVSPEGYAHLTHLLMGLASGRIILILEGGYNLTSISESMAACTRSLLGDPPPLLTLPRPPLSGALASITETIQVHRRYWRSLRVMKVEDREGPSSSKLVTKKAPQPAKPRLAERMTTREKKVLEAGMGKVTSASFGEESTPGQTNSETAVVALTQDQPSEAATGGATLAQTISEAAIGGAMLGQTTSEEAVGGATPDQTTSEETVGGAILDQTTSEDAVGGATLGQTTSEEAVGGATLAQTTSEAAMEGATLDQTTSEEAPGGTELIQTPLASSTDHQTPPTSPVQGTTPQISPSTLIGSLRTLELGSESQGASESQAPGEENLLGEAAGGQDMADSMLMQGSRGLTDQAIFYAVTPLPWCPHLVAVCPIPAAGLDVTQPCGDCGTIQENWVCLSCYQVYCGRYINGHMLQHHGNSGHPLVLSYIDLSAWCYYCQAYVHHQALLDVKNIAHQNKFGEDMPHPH

Row | Compound | Edema of the heart (frequency of phenotype) ([1]; Table 2, 1 ng MO, 48 hpf) [%] | Hydrocephaly (frequency of phenotype) ([1]; Table 2, 1 ng MO, 48 hpf) [%] | Lethality (frequency of phenotype) ([1]; Table 2, 1 ng MO, 48 hpf) [%] | Mobility: reduced mobility ([1]; Table 2, 1 ng MO, 48 hpf) [% reduced mobility] | Short body axis (frequency of phenotype) ([1]; Table 2, 1 ng MO, 48 hpf) [%] | Small head/eyes: small eyes ([1]; Table 2, 1 ng MO, 48 hpf) [% small eyes] | Small head/eyes: small heads ([1]; Table 2, 1 ng MO, 48 hpf) [% small heads] | Edema of the heart (frequency of phenotype) ([1]; Table 1, 1 ng MO, 48 hpf) [%] | Hydrocephaly (frequency of phenotype) ([1]; Table 1, 1 ng MO, 48 hpf) [%] | Lethality (frequency of phenotype) ([1]; Table 1, 1 ng MO, 48 hpf) [%] | Paralyzed (frequency of phenotype) ([1]; Table 1, 1 ng MO, 48 hpf) [%] | Reduced mobility (frequency of phenotype) ([1]; Table 1, 1 ng MO, 48 hpf) [%] | Short body axis (frequency of phenotype) ([1]; Table 1, 1 ng MO, 48 hpf) [%] | Small head/eyes (frequency of phenotype) ([1]; Table 1, 1 ng MO, 48 hpf) [%] | effect on MEC-17 acetylation activity [4] | also measured
1 | ATG MIS MO: negative control MO, 5 bp mismatch to the ATG-MEC17 MO, 5′-CATTgAcGTCcTAAGGcAAATgCAT-3′ (SEQ ID NO:9) (CATTGACGTCCTAAGGCAAATGCAT; all phosphorodiamidate morpholino (PMO)) [reference compound] | 3.8 | 0 | 2.5 | 2.5 | 5.1 | 1.2 | 6.4 |  |  |  |  |  |  |  |  | gross embryo phenotype / developmental defects ([1]; injected embryos): appeared normal
2 | MEC-17 SP MP: morpholino 5′-AGAGAAAGCTATTTTACCCGTTCTG-3′ (SEQ ID NO:8); targets the exon3/intron3-4 splice junction of mec17 (all phosphorodiamidate morpholino (PMO)) |  |  |  |  |  |  |  | 13.2 | 33 | 28 | 15 | 23.5 | 41.5 | 47.1 |  | levels of mec17 mRNA [2]: severe reduction
3 | CC(=O)O[C@H]1C(=O)[C@@]2(C)[C@H]([C@H](OC(=O)c3ccccc3)[C@]3(O)C[C@H](OC(=O)[C@H](O)[C@@H](NC(=O)c4ccccc4)c4ccccc4)C(C)=C1C3(C)C)[C@]1(OC(C)=O)CO[C@@H]1C[C@@H]2O [Paclitaxel, paclitaxel, reference compound] |  |  |  |  |  |  |  |  |  |  |  |  |  |  | stimulated | growth of MEC-17-KO cells in medium with drug, compared with wild type [3]: grew faster than wild-type cells
4 | MEC-17 ATG MO: morpholino 5′-CATTCAGGTCGTAAGGGAAATCCAT-3′ (SEQ ID NO:7); targets the translation initiation site of MEC-17 mRNA (all phosphorodiamidate morpholino (PMO)) | 7.9 | 13.8 | 3.7 | 17.5 | 27.1 | 74.4 | 79.2 | 15.4 | 15 | 7 | 15.4 | 41.6 | 35.7 | 28.5 |  | Mobility: paralyzed ([1]; Table 2, 1 ng MO, 48 hpf): 10.1% paralyzed
5 | O=C(CCCCCCC(=O)Nc1ccc([C@H]2O[C@@H](CSc3nc(-c4ccccc4)c(-c4ccccc4)o3)C[C@@H](c3ccc(CO)cc3)O2)cc1)NO [tubacin] |  |  |  |  |  |  |  |  |  |  |  |  |  |  |  | inhibition of HDAC6 [5]: a specific inhibitor
6 | Nc1nc2c(ncn2[C@@H]2O[C@H](COP(=O)(O)OP(=O)(O)OP(=O)(O)O)[C@@H](O)[C@H]2O)c(=O)[nH]1 [GTP] |  |  |  |  |  |  |  |  |  |  |  |  |  |  | stimulated | 
